Assay results: US8859565B2, “Compound for inhibiting type 5 phosphodiesterase and preparation method thereof” (priority 2010, dated 2014)
Structures can show the parent of a compound that is named as a salt. Blank lines part the entries; values can stand above or below the compound they belong to.

How the values were obtained:
PDE5 [1] = target: T1, PDE5 (Homo sapiens, UniProt O76074); test: Effect to PDE5 on cAMP (cAMP enzyme immunoassay, EIA); assay type: biochemical; details: 1600 fmol cAMP, PDE5 3u, 30° C., 20 min; 10^−4 to 10^−12 mol·L^−1; p>0.05, S curve cannot be fitted
PDE5 [2] = target: T1, PDE5; test: Inhibiting effect to PDE5 degrading cGMP (cGMP enzyme immunoassay, EIA); assay type: biochemical; details: 3200 fmol cGMP, PDE5 3u, 30° C., 20 min; PROBIT regression
[3] = tested on: rats having hypertension induced by monocrotaline; details: cited from earlier work
pulmonary hypertension = details: animal model experiments; cited from earlier work

Effect to PDE5 on cAMP (OD value vs negative control) (PDE5 [1]): no substantial difference in OD value | IC50 (PDE5 [2]): 2.12 nM
Compound: CCCc1nn(C)c2c(=O)[nH]c(-c3cc(S(=O)(=O)N4C[C@@H](C)N(C)[C@@H](C)C4)ccc3OCC)nc12 [ZTH, 5-[2-ethoxyphenyl-5-(3,4,5-trimethylpiperazinyl)-sulfonyl]-1-methyl-3-propyl-1,6-dihydro-7H-pyrazolo[4,3-d]pyrimidine-7-ketone citrate]

Compound: COc1ccc(CNc2nnc(N3CCC(O)CC3)c3ccc(C#N)cc23)cc1Cl.Cl [E-4010]
Survival rate [3]: can increase the survival rate

Compound: CCCOc1ccccc1-c1nc2nn[nH]c2c(=O)[nH]1 [zaprinast]
Effect on pulmonary hypertension (pulmonary hypertension): relatively strong effects to lower pulmonary hypertension
